How the values were obtained:
LH-RH = settings: in vitro; cited from earlier work
ovulation [1] = settings: administered at noon of proestrus; cited from earlier work
ovulation [2] = test: Anti-ovulatory activity in proestrus rats (oviducts inspected for ova); format: in vivo, Sprague-Dawley CD rats; settings: single administration at 1200 hours of proestrus
Method: The product of Example 2 was injected subcutaneously, in corn oil, as a single administration at 1200 hours on the day of proestrus (at least 2.5 hours prior to the commencement of the ovulatory LH surge). The rats were sacrificed on the morning of estrus (the day following proestrus) and the oviducts were inspected for the presence of ova under a dissecting microscope. The number of animals ovulating and the percent inhibition were as follows: […]

[3] = tested on: leuteinizing hormone (LH) release; settings: LH-RH = 100 percent; cited from earlier work

For [D-pGlu^1, D-Phe^2, D-Trp^3,6 ]-LH-RH, the “IDR50 (inhibitory molar dose ratio antagonist/LH-RH)” value (LH-RH) is listed as 3/1 and the “effective dose for in vivo inhibition of ovulation” value (ovulation [1]) is listed as 20 to 25 mg.

In the case of “D-(5-Oxoprolyl)-D-phenylalanyl-D-3-(1-naphthyl)-alanyl-L-seryl-L-tyrosyl-D- 3-(1-naphthyl)-alanyl-L-leucyl-L-arginyl-L-prolyl-glycine acetate salt [Example 2]”, the “number of animals ovulating” value (ovulation [2]; 375 μg s.c. in corn oil) is reported as 5/6, the “percent inhibition of ovulation” value (ovulation [2]; 375 μg s.c. in corn oil) is reported as 17% and the “number of animals ovulating” value (ovulation [2]; 500 μg s.c. in corn oil) is reported as 6/20. The “percent inhibition of ovulation” value (ovulation [2]; 500 μg s.c. in corn oil) was 70%, the “number of animals ovulating” value (ovulation [2]; 1000 μg s.c. in corn oil) was 1/14 and the “percent inhibition of ovulation” value (ovulation [2]; 1000 μg s.c. in corn oil) was 93%.

For Nal(1)^3 -LH-RH, the “potency as LH releasing agent relative to LH-RH” value [3] is given as 187.1%.

Source: patent US4253997A, “Anti-ovulatory decapeptides” (American Home Products Corporation, priority 1979, dated 1981)
